For this experiment, the target named is T1, human LPAAT-β (Homo sapiens, UniProt O15120).
T1 construct: the full-length human LPAAT-β cDNA was amplified by PCR; poly-histidine tag (N); made in house; host or cells: Sf9 insect cells (baculovirus, pFastBac HTc); the membrane fraction was used as the enzyme
T1 sequence (O15120 24-278): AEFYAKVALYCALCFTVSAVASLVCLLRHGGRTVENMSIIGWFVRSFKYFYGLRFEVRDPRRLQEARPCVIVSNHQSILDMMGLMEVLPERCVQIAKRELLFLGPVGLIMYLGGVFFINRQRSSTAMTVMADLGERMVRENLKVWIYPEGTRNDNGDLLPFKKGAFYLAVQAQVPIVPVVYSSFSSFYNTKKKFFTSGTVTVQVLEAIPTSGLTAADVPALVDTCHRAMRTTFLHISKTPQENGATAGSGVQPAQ
The experiment in a line: LPAAT-β cell-free assay. It is filed as biochemical. The conditions noted are these: Sf9 cell membrane overexpressing recombinant LPAAT-β. An outline of the steps: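 Membranes from Sf9 cells expressing His/myc-tagged full-length human LPAAT-β were used in HEPES-saline pH 7.5 with 1 mg/ml BSA. Compound was added from a 200 μM DMSO stock, and reaction with 18:1-CoA and sn-1-18:1 lysoPA (1 mM stocks) ran 25 min at RT. Released CoA was detected with DTNB at 405 nm; a radiometric variant used 200 μM [14C]18:1-CoA and 200 μM lysoPA.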

Among the data in patent US7419984B2, “Pyrimidines and uses thereof” (Cell Therapeutics, Inc., priority 2002, dated 2008) are IC50 values, retold here.

By IC50 is commonly meant the concentration needed to halve the response being measured.

On to `CCc1ccc(Cl)cc1-c1cc(Nc2ccc(C(F)(F)F)cc2)nc(N)n1` [Example 164, 6-(5-Chloro-2-ethyl-phenyl)-N*4*-(4-trifluoromethyl-phenyl)-pyrimidine-2,4-diamine], for which the IC50 was 670 nM. As to `Cc1ccc(Cl)cc1-c1cc(Nc2ccc(CCO)cc2)nc(N)n1` [Example 49, 2-{4-[2-Amino-6-(5-chloro-2-methyl-phenyl)-pyrimidin4-ylamino]-phenyl}-ethanol], the IC50 turned out to be 49 nM. As to `Nc1nc(Nc2ccc(Cl)cc2)cc(-c2ccccc2C(F)(F)F)n1` [Example 105, N*4*-(4-Chloro-phenyl)-6-(2-trifluoromethyl-phenyl)-pyrimidine-2,4-diamine], the IC50 worked out at 1800 nM. As to `Nc1nc(Nc2ccc(Cl)c(C(F)(F)F)c2)cc(-c2cc(Cl)ccc2Cl)n1` [Example 179, N*4*-(4-Chloro-3-trifluoromethyl-phenyl)-6-(2,5-dichloro-phenyl)-pyrimidin-2,4-diamine], the IC50 was found to be 180 nM. On to `CCOC(=O)c1cccc(Nc2cc(-c3cc(Br)ccc3OC)nc(N)n2)c1` [Example 171, 3-[2-Amino-6-(5-bromo-2-methoxy-phenyl)-pyrimidin4-ylamino]-benzoic acid ethyl ester], for which the IC50 was found to be 260 nM. The value for `CCOc1ccc(Br)cc1-c1cc(Nc2ccc(C(=O)OC)cc2)nc(N)n1` [Example 61, 4-[2-Amino-6-(5-bromo-2-ethoxy-phenyl)-pyrimidin-4-ylamino]-benzoic acid methyl ester] was 350 nM; that for `CCc1ccc(Cl)cc1-c1cc(Nc2ccc([N+](=O)[O-])cc2)nc(N)n1` [Example 169, 6-(5-Chloro-2-ethyl-phenyl)-N*-4*-(4-nitro-phenyl)-pyrimidine-2,4-diamine] was 93 nM; that for `Cc1ccc(Cl)cc1-c1cc(Nc2ccc3cn[nH]c3c2)nc(N)n1` [Example 31, 6-(5-Chloro-2-methyl-phenyl)-N*4*-(1H-indazol-6-yl)-pyrimidine-2,4-diamine] was 32 nM. The value for `COc1ccc(Cl)cc1-c1cc(Nc2ccc([N+](=O)[O-])cc2)nc(N)n1` [Example 11, 6-(5-Chloro-2-methoxy-phenyl)-N*4*-(4-nitro-phenyl)-pyrimidine-2,4-diamine] was 14 nM; that for `Nc1nc(Nc2ccc(Cl)cc2)cc(-c2cc(Br)ccc2OCc2ccc(Cl)cc2)n1` [Example 165, 6-[5-Bromo-2-(4-chloro-benzyloxy)-phenyl]-N*4*-(4-chloro-phenyl)-pyrimidine-2,4-diamine] was 3 nM. As to `CCOc1ccc(Cl)cc1-c1cc(Nc2ccc(COC(=O)CCC(=O)O)cc2)nc(N)n1` [Example 63, Succinic acid mono-{4-[2-amino-6-(5-chloro-2-ethoxy-phenyl)-pyrimidin-4-ylamino]-benzyl}-ester], the half-inhibitory concentration (IC50) worked out at 83 nM.

Regarding `Nc1nc(Nc2ccc(Cl)cc2)cc(-c2cc(Br)ccc2OCc2ccccc2)n1` [Example 146, 6-(2-Benzyloxy-5-bromo-phenyl)-N*4*-(4-chloro-phenyl)-pyrimidine-2,4-diamine], the IC50 worked out at 3 nM.

As for `CCOc1ccc(Cl)cc1-c1cc(Nc2ccccc2Cl)nc(N)n1` [Example 117, 6-(5-Chloro-2-ethoxy-phenyl)-N*4*-(2-chloro-phenyl)-pyrimidine-2,4-diamine], the IC50 stood at 4900 nM.

Turning to `CNC(=O)c1cc(Nc2cc(-c3cc(Cl)ccc3C)nc(N)n2)ccc1Br` [Example 77, 5-[2-Amino-6-(5-chloro-2-methyl-phenyl)-pyrimidin4-ylamino]-2-bromo-N-methyl-benzamide], the IC50 was found to be 370 nM.

Turning to `Nc1nc(Nc2ccc(Cl)cc2)cc(-c2cc(Br)ccc2OCCc2ccccc2)n1` [Example 166, 6-(5-Bromo-2-phenethyloxy-phenyl)-N*4*-(4-chloro-phenyl)-pyrimidine-2,4-diamine], the IC50 came out at 5 nM. `CCOc1ccc(Cl)cc1-c1cc(Nc2ccc(C)cc2)nc(N)n1` [Example 53, 6-(5-Chloro-2-ethoxy-phenyl)-N*4*-p-tolyl-pyrimidine-2,4-diamine]: the IC50 is 95 nM. With `CCOc1ccc(Cl)cc1-c1cc(Nc2ccc(C(C)=O)cc2)nc(N)n1` [Example 121, 1-{4-[2-amino-6-(5-chloro-2-ethoxyphenyl)pyrimidin-4-ylamino]phenyl}ethanone], the IC50 turned out to be 49 nM. For `CCOc1ccc(Br)cc1-c1cc(Nc2ccc(C)c(C)c2)nc(N)n1` [Example 132, 6-(5-Bromo-2-ethoxy-phenyl)-N*4*-(3,4-dimethyl-phenyl)-pyrimidine-2,4-diamine], the IC50 came out at 140 nM. On to `Nc1nc(Nc2ccc(CO)cc2)cc(-c2cc(Cl)ccc2Cl)n1` [Example 22, {4-[2-Amino-6-(2,5-dichloro-phenyl)-pyrimidin-4-yl-amino]-phenyl}-methanol], for which the IC50 is 60 nM.

Regarding `CCOc1ccc(Cl)cc1-c1cc(Nc2ccc(CCO)cc2)nc(N)n1` [Example 47, 2-{4-[2-Amino-6-(5-chloro-2-ethoxy-phenyl)-pyrimidin4-ylamino]-phenyl}-ethanol], the IC50 was determined as 28 nM. To `Cc1ccc(Cl)cc1-c1cc(Nc2ccc(CCO)cc2)ncn1` [Example 176, 2-{4-[6-(5-Chloro-2-methyl-phenyl)-pyrimidin-4-ylamino]-phenyl}-ethanol] belongs 60 nM; to `Nc1nc(Nc2ccc(C(F)(F)F)cc2)cc(-c2cc(Cl)cc(Cl)c2Cl)n1` [Example 102, 6-(2,3,5-trichloro-phenyl) N*4*-(4-trifluoromethyl-phenyl)-pyrimidine-2,4-diamine], 500 nM; to `COc1ccc(Cl)cc1-c1cc(Nc2ccc(CCO)cc2)nc(N)n1` [Example 50, 2-{4-[2-Amino-6-(5-chloro-2-methoxy-phenyl)-pyrimidin-4-ylamino]-phenyl}-ethanol], 46 nM. For `CCOC(=O)c1cccc(Nc2cc(-c3cc(Cl)ccc3Cl)nc(N)n2)c1` [Example 170, 3-[2-Amino-6-(2,5-dichloro-phenyl)-pyrimidin-4-ylamino]-benzoic acid ethyl ester], the IC50 was 24 nM. In the case of `Cc1ccc(Cl)cc1-c1cc(Nc2ccc(C#N)cc2)nc(N)n1` [Example 32, 4-[2-Amino-6-(5-chloro-2-methyl-phenyl)-pyrimidin4-ylamino]-benzonitrile], the half-maximal inhibitory concentration (IC50) worked out at 38 nM. To `CCc1ccc(Cl)cc1-c1cc(Nc2ccc(Br)cc2)nc(N)n1` [Example 163, N*4*-(4-Bromo-phenyl)-6-(5-chloro-2-ethyl-phenyl)-pyrimidine-2,4-diamine] belongs 310 nM; to `Cc1ccc(C)c(-c2cc(Nc3ccc(Cl)cc3)nc(N)n2)c1` [Example 73, N*4*-(4-Chloro-phenyl)-6-(2,5-dimethyl-phenyl)-pyrimidine-2,4-diamine], 160 nM. As to `Cc1ccc(Br)cc1-c1cc(Nc2ccc([N+](=O)[O-])cc2)nc(N)n1` [Example 88, 6-(5-Bromo-2-methyl-phenyl)-N*4*-(4-nitro-phenyl)-pyrimidine-2,4-diamine], the IC50 turned out to be 21 nM. On to `Nc1nc(Nc2ccc(Cl)cc2)cc(-c2ccccc2Oc2ccccc2)n1` [Example 152, N*4*-(4-Chloro-phenyl)-6-(2-phenoxy-phenyl)-pyrimidin-2,4-diamine], for which the IC50 amounted to 240 nM. For `Nc1nc(Nc2ccc([N+](=O)[O-])cc2)cc(-c2cc(Br)ccc2OCc2ccccc2)n1` [Example 177, 6-(2-Benzyloxy-5-bromo-phenyl)-N*4*-(4-nitro-phenyl)-pyrimidine-2,4-diamine], the IC50 stood at 2 nM.
